This passage reports MIC and zone of inhibition results from ChEMBL document CHEMBL5532639, “Heterocyclic pyrimidine derivatives as promising antibacterial agents” (Eur J Med Chem, 2023).

Converted amounts (≈) assume the structure as drawn.

Assay [1] deals with Escherichia coli. The assay is described as follows: Antibacterial activity against Escherichia coli assessed as inhibition of bacterial growth incubated for 4 to 20 hrs by resazurin based microplate reader analysis. It counts as functional. Conditions: time 4-20 hrs.
In assay [2] the test system is Pseudomonas aeruginosa. As to the kind of experiment: Antibacterial activity against Pseudomonas aeruginosa assessed as inhibition of bacterial growth incubated for 4 to 20 hrs by resazurin based microplate reader analysis. It counts as functional. Conditions: time 4-20 hrs.
For assay [3], the system named is Bacillus subtilis. The assay is described as follows: Antibacterial activity against Bacillus subtilis assessed as inhibition of bacterial growth incubated for 4 to 20 hrs by resazurin based microplate reader analysis. The following applies: time 4-20 hrs. Format: functional.
For assay [4], the system named is Staphylococcus aureus. The assay is described as follows: Antibacterial activity against Staphylococcus aureus assessed as inhibition of bacterial growth incubated for 4 to 20 hrs by resazurin based microplate reader analysis. Format: functional. The following applies: time 4-20 hrs.
Assay [5] concerns Bacillus subtilis. As to the kind of experiment: Antibacterial activity against Bacillus subtilis assessed as bacterial growth inhibition by measuring zone of inhibition at 50 ug/ml by agar cup diffusion assay. The following applies: read-out: IZ. Format: functional.
In assay [6] the test system is Salmonella typhimurium. As to the kind of experiment: Antibacterial activity against Salmonella typhimurium DT104 assessed as bacterial growth inhibition by measuring zone of inhibition at 50 ug/ml by agar cup diffusion assay. Format: functional, Salmonella enterica subsp. enterica serovar Typhimurium. The following applies: Salmonella enterica, read-out: IZ.
Assay [7] deals with Escherichia coli. The assay is described as follows: Antibacterial activity against Escherichia coli assessed as bacterial growth inhibition by measuring zone of inhibition at 50 ug/ml by agar cup diffusion assay. It counts as functional. The following applies: read-out: IZ.
Assay [8] deals with Staphylococcus aureus. As to the kind of experiment: Antibacterial activity against Staphylococcus aureus assessed as bacterial growth inhibition by measuring zone of inhibition at 50 ug/ml by agar cup diffusion assay. Format: functional. Conditions: read-out: IZ.
Assay [9] deals with Escherichia coli. The assay is described as follows: Antibacterial activity against Escherichia coli assessed as zone of inhibition at 50 microg/ml by cup plate analysis. It counts as functional. Conditions: read-out: IZ.
In assay [10] the test system is Proteus vulgaris. The assay is described as follows: Antibacterial activity against Proteus vulgaris assessed as zone of inhibition at 50 microg/ml by cup plate analysis. It counts as functional. The following applies: read-out: IZ.
For assay [11], the system named is Bacillus subtilis. As to the kind of experiment: Antibacterial activity against Bacillus subtilis assessed as zone of inhibition at 50 microg/ml by cup plate analysis. Format: functional. The following applies: read-out: IZ.
Assay [12] concerns Bacillus pumilus. As to the kind of experiment: Antibacterial activity against Bacillus pumilus assessed as zone of inhibition at 50 microg/ml by cup plate analysis. The following applies: read-out: IZ. It counts as functional.
In assay [13] the test system is Staphylococcus cohnii. The assay is described as follows: Antibacterial activity against Staphylococcus cohnii. It counts as functional.
Assay [14] relates to Staphylococcus epidermidis. As to the kind of experiment: Antibacterial activity against Staphylococcus epidermidis assessed as reduction in microbial growth after 24 hrs by CLSI based microdilution method. It counts as functional.
Assay [15] has as its system Corynebacterium glutamicum. As to the kind of experiment: Antibacterial activity against Corynebacterium glutamicum. Format: functional.
Assay [16] relates to Staphylococcus haemolyticus. The assay is described as follows: Antibacterial activity against Staphylococcus haemolyticus clinical isolates assessed as bacterial growth inhibition measured after 16 to 24 hrs by broth microdilution assay. Conditions: time 16-24 hrs. It counts as functional.
Assay [17] relates to Arcanobacterium haemolyticum. As to the kind of experiment: Antibacterial activity against Arcanobacterium haemolyticum. Format: functional.
In assay [18] the test system is Staphylococcus epidermidis. As to the kind of experiment: Antibacterial activity against Staphylococcus epidermidis assessed as reduction in bacterial growth measured after 24 hrs by broth microdilution method. It counts as functional.
Assay [19] deals with Alcaligenes faecalis. As to the kind of experiment: Antibacterial activity against Alcaligenes faecalis. It counts as functional.
Assay [20] has as its system Corynebacterium xerosis. The assay is described as follows: Antibacterial activity against Corynebacterium xerosis. It counts as functional.
Assay [21] has as its system Micrococcus luteus. The assay is described as follows: Antibacterial activity against Micrococcus luteus assessed as reduction in microbial growth. Format: functional.
The test system of assay [22] is Micrococcus luteus. As to the kind of experiment: Antibacterial activity against Micrococcus luteus assessed as bacterial growth inhibition by paper disc diffusion assay. It counts as functional.
Assay [23] concerns Corynebacterium glutamicum. As to the kind of experiment: Antibacterial activity against Corynebacterium glutamicum ATCC 13032 cultured in MHB medium assessed as no bacterial growth incubated at 20 degC for 24 hrs by microdilution susceptibility test. Format: functional.
Assay [24] has as its system Corynebacterium sp. As to the kind of experiment: Antibacterial activity against Corynebacterium sp. Format: functional.
The subject of assay [25] is Micrococcus sp. As to the kind of experiment: Antibacterial activity against Micrococcus sp. Format: functional.
Assay [26] concerns Moraxella catarrhalis. As to the kind of experiment: Antibacterial activity against Moraxella catarrhalis assessed as reduction in bacterial growth by broth microdilution method. Format: functional.
In assay [27] the test system is Acinetobacter sp. The assay is described as follows: Antibacterial activity against Acinetobacter sp. Format: functional.
For assay [28], the system named is Staphylococcus hominis. As to the kind of experiment: Antibacterial activity against Staphylococcus hominis. Format: functional.
The test system of assay [29] is Staphylococcus xylosus. The assay is described as follows: Antibacterial activity against Staphylococcus xylosus assessed as reduction in bacterial growth. It counts as functional.
Assay [30] has as its system Escherichia coli. The assay is described as follows: Antibacterial activity against Escherichia coli assessed as bacterial growth inhibition incubated for 18 hrs by CLSI protocol based Mueller-Hinton broth assay. It counts as functional.
Assay [31] relates to Staphylococcus aureus. As to the kind of experiment: Antibacterial activity against Staphylococcus aureus assessed as reduction in microbial growth by CLSI based broth microdilution method. It counts as functional.
In assay [32] the test system is Pseudomonas aeruginosa. The assay is described as follows: Antibacterial activity against Pseudomonas aeruginosa assessed as reduction in bacterial growth by broth microdilution method. Format: functional.
The test system of assay [33] is Streptococcus pyogenes. As to the kind of experiment: Antibacterial activity against Streptococcus pyogenes assessed as reduction in microbial growth by CLSI based broth microdilution method. It counts as functional.
The subject of assay [34] is Klebsiella pneumoniae. The assay is described as follows: Antibacterial activity against Klebsiella pneumoniae assessed as reduction in bacterial growth incubated for 16 to 20 hrs by Mueller-Hinton broth based two-fold serial dilution method. It counts as functional. The following applies: time 16-20 hrs.
The subject of assay [35] is Streptococcus pyogenes. As to the kind of experiment: Antibacterial activity against Streptococcus pyogenes assessed as reduction in microbial growth incubated for 24 hrs by broth micro-dilution method. Format: functional.
The subject of assay [36] is Escherichia coli. As to the kind of experiment: Antibacterial activity against Escherichia coli assessed as reduction in bacterial growth incubated for 16 to 20 hrs by Mueller-Hinton broth based two-fold serial dilution method. It counts as functional. Conditions: time 16-20 hrs.
In assay [37] the test system is Staphylococcus aureus. The assay is described as follows: Antibacterial activity against Staphylococcus aureus assessed as reduction in bacterial growth incubated for 16 to 20 hrs by Mueller-Hinton broth based two-fold serial dilution method. It counts as functional. Conditions: time 16-20 hrs.
Assay [38] concerns Pseudomonas aeruginosa. The assay is described as follows: Antibacterial activity against Pseudomonas aeruginosa assessed as reduction in bacterial growth incubated for 24 hrs by broth microdilution method. Format: functional.

On to `CCCCCCCc1ccc(C(=O)Nc2nc(C)nc3nc(-c4ccccc4)cc(C(F)(F)F)c23)cc1`, for which the MIC was found to be 50 µg/mL (≈ 98.7 µM) in [1], 50 µg/mL (≈ 98.7 µM) in assay [2], 12.5 µg/mL (≈ 24.7 µM) in assay [3] and 12.5 µg/mL (≈ 24.7 µM) in [4].
As for `O=C(CSc1nnc(-c2cccnc2N2CCOCC2)o1)Nc1nc(-c2ccc(Cl)cc2)cc(-c2cc(F)c(Cl)cc2Cl)n1`, the zone of inhibition at 50 µg/mL in assay [5] was found to be 10 mm; in assay [6], 9 mm; in assay [7], 10 mm; in assay [8], 13 mm.
For the compound `Nc1nc(-c2ccc(F)cc2)cc(-c2ccsc2)n1`, the zone of inhibition at 50 µg/mL in assay [9] turned out to be 13 mm; in assay [10], 14 mm; in assay [11], 17 mm; in assay [12], 14 mm.
Turning to `Clc1ccc(C(Cc2cccc(Cl)c2)c2c(Cl)nc(N3CCNCC3)nc2Cl)cc1` (stereo not given), the MIC in assay [13] was determined as 75 µg/mL (≈ 156 µM); in assay [14], 75 µg/mL; in assay [15], 50 µg/mL (≈ 104 µM); in assay [16], 50 µg/mL (≈ 104 µM); in [17] it was 10 µg/mL (≈ 20.7 µM); in assay [18] it was 75 µg/mL (≈ 156 µM). Further, the minimal inhibitory concentration (MIC) is more than 500 µg/mL in assay [19]; 30 µg/mL (≈ 62.2 µM) in assay [20]; 100 µg/mL in assay [21]; 75 µg/mL (≈ 156 µM) in assay [22]; 50 µg/mL (≈ 104 µM) in assay [23]; 75 µg/mL (≈ 156 µM) in assay [24]. Also, the MIC was found to be 75 µg/mL (≈ 156 µM) in assay [25]; 50 µg/mL (≈ 104 µM) in assay [26]; 30 µg/mL (≈ 62.2 µM) in assay [27]; 75 µg/mL (≈ 156 µM) in assay [28]; 100 µg/mL (≈ 207 µM) in [29].
With `Cc1nc(NC(=O)c2ccncc2)c2c(C(F)(F)F)cc(-c3ccccc3)nc2n1`, the MIC in assay [1] is 50 µg/mL (≈ 122 µM); in assay [2], 50 µg/mL (≈ 122 µM); in assay [3] it was 12.5 µg/mL (≈ 30.5 µM); in [4], 12.5 µg/mL (≈ 30.5 µM).
Consider `Cc1ccc(-c2cc(-c3cc(F)c(Cl)cc3Cl)nc(NC(=O)CSc3nnc(-c4cccnc4N4CCOCC4)o3)n2)cc1`, for which the zone of inhibition at 50 µg/mL was 8 mm in assay [5], 10 mm in assay [6], 12 mm in assay [7] and 11 mm in assay [8].
For the compound `O=S(=O)(Nc1ncccn1)c1ccc(Nc2nc(Nc3ccc(Cl)cc3)nc(N3CCCCC3)n2)cc1`, the MIC turned out to be 25 µg/mL (≈ 46.5 µM) in assay [30], 200 µg/mL in assay [31], 100 µg/mL (≈ 186 µM) in assay [32] and 100 µg/mL in assay [33].
Consider `O=[N+]([O-])c1ccc(Nc2nc(Nc3ccc(S(=O)(=O)Nc4ncccn4)cc3)nc(N3CCCCC3)n2)cc1`, for which the MIC was 25 µg/mL (≈ 45.6 µM) in [30], 100 µg/mL in [31], 50 µg/mL (≈ 91.1 µM) in assay [32] and 100 µg/mL in assay [33].
In the case of `Nc1cccc(/C=N/Nc2nc3nc(-c4ccc(Cl)cc4)c(-c4nc5ccccc5s4)c(N)c3c(=O)[nH]2)c1`, the MIC in [34] came out at 12.5 µg/mL (≈ 23.2 µM); in assay [35], 12.5 µg/mL; in [36] it was 12.5 µg/mL (≈ 23.2 µM); in [37], 25 µg/mL (≈ 46.4 µM); in [38] it was 25 µg/mL (≈ 46.4 µM).
Consider `Nc1c(-c2nc3ccccc3s2)c(-c2ccc(Cl)cc2)nc2nc(N/N=C/c3cccc(F)c3)[nH]c(=O)c12`, for which the MIC in [34] was 25 µg/mL (≈ 46.1 µM); in assay [35] it was 12.5 µg/mL; in [36], 25 µg/mL (≈ 46.1 µM); in [37], 12.5 µg/mL (≈ 23.1 µM); in [38] it was 25 µg/mL (≈ 46.1 µM).
